Here are results for 37 molecules from patent publication US20050197350A1, “Novel quinoline, tetrahydroquinazoline, and pyrimidine derivatives and methods of treatment related to the use thereof” (TAISHO PHARMACEUTICAL CO., LTD., priority 2003, published 2005).

The first experiment relates to MCH receptors. Briefly: MCH receptor activity class (method not given).
Conditions: not given
In the case of `Cc1cc(N(C)C)nc(N[C@H]2CC[C@@H](C(=O)NCc3cccc(F)c3F)CC2)n1` [Example 2584, cis-N-(2,3-difluorobenzyl)-4-{[4-(dimethylamino)-6-methylpyrimidin-2-yl]amino}cyclohexanecarboxamide], the class came out at 1.

Still in this experiment, the particulars now being: MCH receptor activity class 1-3 (percent of control at 10^-7 M or IC50).
On to `CCc1cccc(CC)c1NC(=S)N[C@H]1CC[C@@H](Nc2nccc(N(C)C)n2)CC1` [compound 2322], for which the class is reported as 3 (Class 3 The value of percent of control at 10^−7 M was more than 60% or the value of IC50 was more than 200 nM.).

As to `COc1ccc(C)cc1NC(=S)N[C@H]1CC[C@@H](Nc2nccc(N(C)C)n2)CC1` [compound 2315], the class was 3 (Class 3 The value of percent of control at 10^−7 M was more than 60% or the value of IC50 was more than 200 nM.).

With `CCCCc1ccc(NC(=S)N[C@H]2CC[C@@H](Nc3nccc(N(C)C)n3)CC2)c(C)c1` [compound 2358], the class is 3 (Class 3 The value of percent of control at 10^−7 M was more than 60% or the value of IC50 was more than 200 nM.).

Staying with this experiment, now noted: MCH receptor; class by percent of control at 10^-7 M or IC50.
In the case of `CN(C)c1cc(N[C@H]2CC[C@@H](CNC(=O)Cc3ccc(F)cc3)CC2)nc2ccccc12` [compound 195], the class is 3 (Class 3 The value of percent of control at 10^−7 M was more than 60% or the value of IC50 was more than 200 nM.).

Take `CN(C)c1nc(N[C@H]2CC[C@@H](NC(=S)NC3CC4C=CC3C4)CC2)nc2c1CCCC2` (relative stereo) [compound 2067]: the class is 3 (Class 3 The value of percent of control at 10^−7 M was more than 60% or the value of IC50 was more than 200 nM.).

Turning to `CN(C)c1nc(N[C@H]2CC[C@@H](NC(=S)Nc3ccc(S(=O)(=O)N4CCCCC4)cc3)CC2)nc2c1CCCC2` [compound 2057], the class is reported as 3 (Class 3 The value of percent of control at 10^−7 M was more than 60% or the value of IC50 was more than 200 nM.).

With `Cc1cc(NC(=S)N[C@H]2CC[C@@H](Nc3nc4c(c(N(C)C)n3)CCCC4)CC2)ccc1Br` [compound 2047], the class is reported as 3 (Class 3 The value of percent of control at 10^−7 M was more than 60% or the value of IC50 was more than 200 nM.).

With `CN(C)c1nc(N[C@H]2CC[C@@H](NC(=S)Nc3ccc(SC(F)(F)F)cc3)CC2)nc2c1CCCC2` [compound 1990], the class is reported as 3 (Class 3 The value of percent of control at 10^−7 M was more than 60% or the value of IC50 was more than 200 nM.).

The experiment is the same for the next values; noted with them: activity class 1-3: percent of control at 10^-7 M or IC50.
Consider `CN(C)c1nc(N[C@H]2CC[C@@H](NC(=O)Nc3ccccc3C(C)(C)C)CC2)nc2c1CCCC2` [compound 1684], for which the class is reported as 3 (Class 3 The value of percent of control at 10^−7 M was more than 60% or the value of IC50 was more than 200 nM.).

With `COC(=O)NC[C@H]1CC[C@@H](Nc2nc3c(c(N(C)C)n2)CCCC3)CC1` [compound 1615], the class is 3 (Class 3 The value of percent of control at 10^−7 M was more than 60% or the value of IC50 was more than 200 nM.).

Staying with this experiment, now noted: activity class per percent of control at 10^-7 M or IC50.
As for `CN(C)c1nc(N[C@H]2CC[C@@H](NC(=O)c3ccccc3CCc3ccccc3)CC2)nc2c1CCCC2` [compound 1008], the class is 3 (Class 3 The value of percent of control at 10^−7 M was more than 60% or the value of IC50 was more than 200 nM.).

Turning to `Cc1cc(CN[C@H]2CC[C@@H](Nc3cc(N(C)C)c4ccccc4n3)CC2)c(C)n1-c1ccccc1` [compound 1109], the class was 3 (Class 3 The value of percent of control at 10^−7 M was more than 60% or the value of IC50 was more than 200 nM.).

Take `CN(C)c1cc(N[C@H]2CC[C@@H](NCc3cncc(-c4ccc(F)cc4)c3)CC2)nc2ccccc12` [compound 1114]: the class is 3 (Class 3 The value of percent of control at 10^−7 M was more than 60% or the value of IC50 was more than 200 nM.).

Take `CN(C)c1nc(N[C@H]2CC[C@@H](CNC(=O)C3CC(=O)c4ccccc43)CC2)nc2c1CCCC2` (relative stereo) [compound 1071]: the class is given as 3 (Class 3 The value of percent of control at 10^−7 M was more than 60% or the value of IC50 was more than 200 nM.).

As to `Cc1cc(C)c(C(=O)C(=O)N[C@H]2CC[C@@H](Nc3nc4c(c(N(C)C)n3)CCCC4)CC2)c(C)c1` [compound 1051], the class was 3 (Class 3 The value of percent of control at 10^−7 M was more than 60% or the value of IC50 was more than 200 nM.).

Staying with this experiment, now noted: class 1-3 by percent of control at 10^-7 M or IC50.
Regarding `CN(C)c1ccnc(N[C@H]2CC[C@@H](CNC(=O)c3cc(C(C)(C)C)nn3C)CC2)n1` [compound 431], the class is recorded as 3 (Class 3 The value of percent of control at 10^−7 M was more than 60% or the value of IC50 was more than 200 nM.).

For the molecule `CCSc1ncccc1C(=O)N[C@H]1CC[C@@H](Nc2nc3c(c(N(C)C)n2)CCCC3)CC1` [compound 472], the class was 3 (Class 3 The value of percent of control at 10^−7 M was more than 60% or the value of IC50 was more than 200 nM.).

Regarding `CN(C)c1nc(N[C@H]2CC[C@@H](CNC(=O)c3ccc(Cl)cc3)CC2)nc2c1CCCC2` [compound 587], the class is on record as 3 (Class 3 The value of percent of control at 10^−7 M was more than 60% or the value of IC50 was more than 200 nM.).

Staying with this experiment, now noted: class by percent of control at 10^-7 M or IC50.
Regarding `CN(C)c1ccnc(N[C@H]2CC[C@@H](CNC(=O)c3cccs3)CC2)n1` [compound 397], the class was 3 (Class 3 The value of percent of control at 10^−7 M was more than 60% or the value of IC50 was more than 200 nM.).

`C[C@@H](c1ccccc1)N(C(=O)c1ccccc1C(=O)N[C@H]1CC[C@@H](Nc2cc(N(C)C)c3ccccc3n2)CC1)[C@@H](C)c1ccccc1` [compound 739]: the class is 3 (Class 3 The value of percent of control at 10^−7 M was more than 60% or the value of IC50 was more than 200 nM.).

As for `CN(C)c1ccnc(N[C@H]2CC[C@@H](NC(=O)Cc3c[nH]c4ccc(OCc5ccccc5)cc34)CC2)n1` [compound 887], the class was 3 (Class 3 The value of percent of control at 10^−7 M was more than 60% or the value of IC50 was more than 200 nM.).

With `CN(C)c1ccnc(N[C@H]2CC[C@@H](NC(=O)c3ccc(Br)o3)CC2)n1` [compound 833, 5-bromo-N-(cis-4-{[4-(dimethylamino)pyrimidin-2-yl]amino}cyclohexyl)-2-furamide], the class is reported as 1 (Class 1: The value of percent of control at 10^−7 M was less than 40% or the value of IC50 was less than 50 nM.).

As to `CN(C)c1cc(N[C@H]2CC[C@@H](NC(=O)Cc3c(-c4ccccc4)[nH]c4ccccc34)CC2)nc2ccccc12` [compound 729, N-(cis-4-{[4-(dimethylamino)quinolin-2-yl]amino}cyclohexyl)-2-(2-phenyl-1H-indol-3-yl)acetamide], the class is on record as 2 (Class 2: The value of percent of control at 10^−7 M was from 40% to 60% or the value of IC′50 was from 50 nM to 200 nM.).

Regarding `CN(C)c1ccnc(N[C@H]2CC[C@@H](CNCc3cc(Cl)cc(Br)c3O)CC2)n1` [compound 1283], the class was 3 (Class 3 The value of percent of control at 10^−7 M was more than 60% or the value of IC50 was more than 200 nM.).

As to `CN(C)c1ccnc(N[C@H]2CC[C@@H](CNC(=O)c3ccc(F)c(F)c3)CC2)n1` [compound 378], the class is given as 3 (Class 3 The value of percent of control at 10^−7 M was more than 60% or the value of IC50 was more than 200 nM.).

Turning to `Cc1ccc(NC(=O)N[C@H]2CC[C@@H](Nc3nc4c(c(N(C)C)n3)CCCC4)CC2)c(C)c1` [compound 1847], the class is listed as 3 (Class 3 The value of percent of control at 10^−7 M was more than 60% or the value of IC50 was more than 200 nM.).

For the molecule `CN(C)c1nc(N[C@H]2CC[C@@H](CNC(=O)c3c(F)ccc(F)c3Cl)CC2)nc2c1CCCC2` [compound 671], the class was 3 (Class 3 The value of percent of control at 10^−7 M was more than 60% or the value of IC50 was more than 200 nM.).

As for `CN(C)c1cc(N[C@H]2CC[C@@H](NC(=O)CCc3ccc(Cl)c(Cl)c3)CC2)nc2ccccc12` [compound 698], the class was 3 (Class 3 The value of percent of control at 10^−7 M was more than 60% or the value of IC50 was more than 200 nM.).

On to `CN(C)c1ccnc(N[C@H]2CC[C@@H](CNC(=O)CC3=CCCCC3)CC2)n1` [compound 943], for which the class is 3 (Class 3 The value of percent of control at 10^−7 M was more than 60% or the value of IC50 was more than 200 nM.).

Regarding `CC(NC(=O)N[C@H]1CC[C@@H](Nc2cc(N(C)C)c3ccccc3n2)CC1)c1cccc2ccccc12` (relative stereo) [compound 2134], the class is on record as 1 (Class 1: The value of percent of control at 10^−7 M was less than 40% or the value of IC50 was less than 50 nM.).

Turning to `CN(C)c1cc(N[C@H]2CC[C@@H](NC(=O)Nc3ccccc3C(F)(F)F)CC2)nc2ccccc12` [compound 2096], the class is 3 (Class 3 The value of percent of control at 10^−7 M was more than 60% or the value of IC50 was more than 200 nM.).

With `CCc1ccccc1NC(=O)N[C@H]1CC[C@@H](Nc2cc(N(C)C)c3ccccc3n2)CC1` [compound 2107], the class was 3 (Class 3 The value of percent of control at 10^−7 M was more than 60% or the value of IC50 was more than 200 nM.).

As to `CCCCOc1ccc(NC(=O)N[C@H]2CC[C@@H](Nc3nc4c(c(N(C)C)n3)CCCC4)CC2)cc1` [compound 1896], the class is reported as 3 (Class 3 The value of percent of control at 10^−7 M was more than 60% or the value of IC50 was more than 200 nM.).

The experiment is the same for the next values; noted with them: class by percent of control at 10^−7 M or IC50.
Take `Cc1cnc(N[C@H]2CC[C@@H](NC(=O)c3ccc(Br)cc3)CC2)nc1N(C)C` [compound 2911, 4-bromo-N-(cis-4-{[4-(dimethylamino)-5-methylpyrimidin-2-yl]amino}cyclohexyl)benzamide]: the class is recorded as 1 (Class 1: The value of percent of control at 10^−7 M was less than 40% or the value of IC50 was less than 50 nM.).

As to `Cc1nc(N[C@H]2CC[C@@H](NC(=O)c3ccc(F)c(F)c3)CC2)nc(N(C)C)c1C` [compound 2864], the class was 1 (Class 1: The value of percent of control at 10^−7 M was less than 40% or the value of IC50 was less than 50 nM.).

Consider `Cc1cc(N(C)C)nc(N[C@H]2CC[C@@H](NC(=O)c3ccc(F)c(F)c3)CC2)n1` [compound 2988, N-(cis-4-{[4-(dimethylamino)-6-methylpyrimidin-2-yl]amino}cyclohexyl)-3,4-difluorobenzamide], for which the class is listed as 1 (Class 1: The value of percent of control at 10^−7 M was less than 40% or the value of IC50 was less than 50 nM.).
